Patent publication US20250034084A1, “COMPOSITIONS AND METHODS FOR PREVENTING OR TREATING MYCOSIS” (AMTIXBIO CO., LTD., priority 2016, published 2025)
Values after ≈ are worked out from the molar mass of the structure shown.

What was measured:
Assay in all cases: Antifungal activity assay (MIC), NCCLS method
Format in all cases: cell-based
Settings in all cases: RPMI 1640 medium
[1] = system: Cryptococcus neoformans var. grubii H99 (ATCC)
From the text: (§1) In order to measure the minimum inhibitory concentration (MIC), strains Candida albicans SC5314 (ATCC), Candida glabrata BG2 (ATCC), and Cryptococcus neoformans var. grubii […] were used. All the strains used in the test examples of the present invention were purchased from Korean Culture Center of Microorganisms (KCCM) and ATCC, and used. […] As a control group, amphotericin B and fluconazole, which are known to have excellent antifungal inhibitory activity with a problem of human toxicity, were used. Specifically, in order to prepare a medium first, 8.4 g of RPMI-1640 powder (Sigma; […]-1L) was added to 900 ml of distilled water. Next, 34.5 g of MOPS was added thereto, to bring the final concentration to 0.165 M. Then, 100 ml of 20% glucose was added thereto, and then the pH of the resultant was adjusted to 7 using NaOH. Next, after performing filtration with a filter, the filtrate was stored in a refrigeration condition at 4° C. for use in the next experiment. The experimental method and procedure for the MIC assay were as follows: […] (c) in a case of Aspergillus fumigatus, a diluent was prepared at a concentration of 1×10^5 conidia/ml; (d) a 96-well plate was used and 100 μl of the solution was added to each well, so that 2 μl of diluted drug was prepared; (e) 200 μl of the solution was added to a well into which the highest concentration of drug was to be added, and dilution was performed by serial dilution; (f) after performing static culture for 48 hours at 37° C., a degree of growth was measured at OD600 and a comparison was made.

[2] = system: Candida glabrata BG2 (ATCC)
From the text: as §1

[3] = system: Candida albicans SC5314 (ATCC)
From the text: as §1

Row | SMILES | MIC C. neoformans [1] [µg/mL] | MIC C. glabrata [2] [µg/mL] | MIC C. albicans [3] [µg/mL] | MIC C. neoformans ([1]; hydrochloride) [µg/mL]
1 | CCC(N)C(=O)NCc1ccc(OCc2ccccc2F)cc1.Cl (racemic) [Compound 17, (R)/(S)-1-((4-((2-(fluorobenzyl)oxy)benzyl)amino)-1-oxobutane-2-aminum chloride] | 64 | >128 | >128 | 
2 | CCC(N)C(=O)NCc1ccc(OCc2ccccc2C(F)(F)F)cc1.Cl (racemic) [Compound 20, (R)/(S)-1-oxo-1-((4-((2-(trifluoromethyl)benzyl)oxy)benzyl)amino)butane-2-aminium chloride] | 16 | 64 | 64 | 
3 | CCC(N)C(=O)NCc1ccc(OCc2cccc(Cl)c2)cc1.Cl (racemic) [Compound 23, (R)/(S)-1-((4-((3-(chlorobenzyl)oxy)benzyl)amino)-1-oxobutane-2-aminium chloride] | 16 | 64 | 64 | 
4 | CCC(N)C(=O)NCc1ccc(OCc2ccc(Cl)cc2)cc1.Cl (racemic) [Compound 24, (R)/(S)-1-((4-((4-(chlorobenzyl)oxy)benzyl)amino)-1-oxobutane-2-aminium chloride] | 16 | 32 | 64 | 
5 | CCCC(N)C(=O)NCc1ccc(OCc2cccc(F)c2)cc1.Cl (racemic) [Compound 25, (R)/(S)-1-((4-((3-fluorobenzyl)oxy)benzyl)amino)-1-oxopentane-2-aminium chloride] | 32 | 64 | 128 | 
6 | Cl.O=C(NCc1ccc(OCc2cccc(F)c2)cc1)C1CCCN1 (racemic) [Compound 38, (R)/(S)-N-(4-((3-fluorobenzyl)oxy)benzyl)pyrrolidine-2-carboxamide hydrochloride] |  |  |  | 128
7 | CCC(N)C(=O)NCc1ccc(OCc2ccc(Cl)c(Cl)c2)cc1.Cl (racemic) [Compound 57, (R)/(S)-1-((4-(3,4-dichlorobenzyl)oxy)benzyl)amino)-1-oxobutane-2-aminium chloride] | 8 |  |  | 
8 | CCCC(N)C(=O)NCc1ccc(OCc2ccc(Cl)c(Cl)c2)cc1.Cl (racemic) [Compound 58, (R)/(S)-1-((4-((3,4-dichlorobenzyl)oxy)benzyl)amino)-1-oxopentane-2-aminium chloride] | 4 |  |  | 
9 | CCC(C(=O)NCc1ccc(OCc2ccc(Cl)c(Cl)c2)cc1)N(C)C (racemic) [Compound 60, (R)/(S)-N-(4-((3,4-dichlorobenzyl)oxy)benzyl)-2-(dimethylamino)butanamide] | 8 (≈ 20.2 µM) |  |  | 
10 | CCC(C(=O)NCc1ccc(OCc2ccc(Cl)c(Cl)c2)cc1)N(C)C (racemic) [Compound 61, (R)/(S)-N-(4-((3,4-dichlorobenzyl)oxy)benzyl)-2-(dimethylamino)butanamide] | 2 (≈ 5.06 µM) |  |  | 
11 | CCC(C(=O)NCc1ccc(OCc2ccc(Cl)c(Cl)c2)cc1)N(CC)CC (racemic) [Compound 67, (R)/(S)-N-(4-((3,4-dichlorobenzyl)oxy)benzyl-2-(diethylamino)butanamide] | 2 (≈ 4.72 µM) |  |  | 
12 | CCCC(C(=O)NCc1ccc(OCc2ccc(Cl)c(Cl)c2)cc1)N(CC)CC (racemic) [Compound 69, (R)/(S)-N-(4-((3,4-dichlorobenzyl)oxy)benzyl-2-(diethylamino)pentanamide] | 1 (≈ 2.29 µM) |  |  | 

Second part, the molecule after the results:

Row | MIC C. neoformans [1] [µg/mL] | MIC C. glabrata [2] [µg/mL] | MIC C. albicans [3] [µg/mL] | MIC C. neoformans ([1]; hydrochloride) [µg/mL] | SMILES
13 | 64 | >128 | >128 |  | CCC(N)C(=O)NCc1ccc(OCc2ccc(F)cc2)cc1.Cl (racemic) [Compound 19, (R)/(S)-1-((4-((4-(fluorobenzyl)oxy)benzyl)amino)-1-oxobutane-2-aminium chloride]
14 | 16 | 64 | 64 |  | CCC(N)C(=O)NCc1ccc(OCc2cccc(C(F)(F)F)c2)cc1.Cl (racemic) [Compound 21, (R)/(S)-1-oxo-1-((4-((3-(trifluoromethyl)benzyl)oxy)benzyl)amino)butane-2-aminium chloride]
15 | 4 (≈ 10.5 µM) | 16 (≈ 42.1 µM) | 16 (≈ 42.1 µM) |  | CCC(NC)C(=O)NCc1ccc(OCc2ccc(C(F)(F)F)cc2)cc1 (racemic) [Compound 27, (R)/(S)-2-(methylamino)-N-(4-((4-trifluoromethyl)benzyl)oxy)benzyl)butanamide]
16 | 8 (≈ 23.1 µM) | 32 (≈ 92.3 µM) | 32 (≈ 92.3 µM) |  | CCC(NC)C(=O)NCc1ccc(OCc2ccc(Cl)cc2)cc1 (racemic) [Compound 29, (R)/(S)-N-(4-((4-chlorobenzyl)oxy)benzyl)-2-(methylamino)butanamide]
17 | 2 (≈ 5.07 µM) | 8 (≈ 20.3 µM) | 8 (≈ 20.3 µM) |  | CCCC(NC)C(=O)NCc1ccc(OCc2ccc(C(F)(F)F)cc2)cc1 (racemic) [Compound 30, (R)/(S)-2-(methylamino)-N-(4-(4-trifluoromethyl)benzyl)oxy)benzyl)pentanamide]
18 | 4 (≈ 10.1 µM) | 16 (≈ 40.6 µM) | 16 (≈ 40.6 µM) |  | CCCC(NC)C(=O)NCc1ccc(OCc2ccc(C(F)(F)F)cc2)cc1 (racemic) [Compound 31, (R)/(S)-2-(methylamino)-N-(4-((4-trifluoromethyl)benzyl)oxy)benzyl)pentanamide]
19 | 8 (≈ 20.3 µM) |  |  |  | CCC(C(=O)NCc1ccc(OCc2ccc(C(F)(F)F)cc2)cc1)N(C)C (racemic) [Compound 59, (R)/(S)-2-(dimethylamino)-N-(4-((4-trifluoromethyl)benzyl)oxy)benzyl)butanamide]
20 | 8 (≈ 20.3 µM) |  |  |  | CCNC(CC)C(=O)NCc1ccc(OCc2ccc(C(F)(F)F)cc2)cc1 (racemic) [Compound 62, (R)/(S)-2-(ethylamino)-N-(4-((4-trifluoromethyl)benzyl)oxy)benzyl)butanamide]
21 | 4 (≈ 10.1 µM) |  |  |  | CCNC(CC)C(=O)NCc1ccc(OCc2ccc(Cl)c(Cl)c2)cc1 (racemic) [Compound 63, (R)/(S)-N-(4-((3,4-dichlorobenzyl)oxy)benzyl-2-(ethylamino)butanamide]
22 | 4 (≈ 9.79 µM) |  |  |  | CCCC(NCC)C(=O)NCc1ccc(OCc2ccc(C(F)(F)F)cc2)cc1 (racemic) [Compound 64, (R)/(S)-2-(ethylamino)-N-(4-((4-(trifluoromethyl)benzyl)oxy)benzyl)pentanamide]
23 | 2 (≈ 4.89 µM) |  |  |  | CCCC(NCC)C(=O)NCc1ccc(OCc2ccc(Cl)c(Cl)c2)cc1 (racemic) [Compound 65, (R)/(S)-N-(4-((3,4-dichlorobenzyl)oxy)benzyl-2-(ethylamino)pentanamide]
24 | 4 (≈ 9.47 µM) |  |  |  | CCC(C(=O)NCc1ccc(OCc2ccc(C(F)(F)F)cc2)cc1)N(CC)CC (racemic) [Compound 66, (R)/(S)-2-(diethylamino)-N-(4-((4-(trifluoromethyl)benzyl)oxy)benzyl)butanamide]
25 | 2 (≈ 4.58 µM) |  |  |  | CCCC(C(=O)NCc1ccc(OCc2ccc(C(F)(F)F)cc2)cc1)N(CC)CC (racemic) [Compound 68, (R)/(S)-2-(diethylamino)-N-(4-((4-(trifluoromethyl)benzyl)oxy)benzyl)pentanamide]
